We go through 8 molecules from patent publication US6284523A, “Process for biodegradation of a xenobiotic” (priority 1998, dated 2001).

In series [1] the test system is Pseudomonas putida ATCC 11172. In words: Biodegradation of solvents (consumed as substrate). The series is classed as cell-based. Conditions: Table 1; Yes/No. On the procedure:
(§1) Pseudomonas putida available under ATCC accession number 11172, an organism known to degrade phenol by the meta pathway (Bayly et al.^17) was used in this Example. The organism was maintained on medium previously described (Fujita et al.^11), containing 5 g/L glucose and 100 mg/L phenol as carbon sources. EDTA was also added to the medium at a 1:1 molar ratio with ferric chloride to prevent the formation of a precipitate. Cultures were grown in 125 mL Erlenmeyer flasks containing 50 mL of maintenance medium in a shaker bath at 30° C. The flasks were allowed to incubate for 36 hours prior to their use as inoculum for fermentation. A total of 160 mL of the cultured medium was centrifuged, the supernatant discarded and the cell fraction resuspended in the remaining 40 mL of medium. The 40 mL aliquot was then used to inoculate the fermentor for the batch and fed batch experiments.
The biodegradability of the solvents was assessed as part of the solvent selection process. 5 mL of each solvent was added to 125 mL Erlenmeyer flasks containing 50 mL of seeded maintenance medium containing 250 mg/L phenol but no glucose. Solvent was not added to one flask, which was used as a control. In addition, 5 mL of corn oil was added to one flask, to serve as a positive control. Flasks were placed on the shaker bath as above for 7 days. The cell density in each flask was measured every 24 hours. The net change in cell density was then compared to the change in cell density seen in the control and the positive control.

The nature of series [2]: Determination of partition coefficients of phenol between solvent and medium buffer. The series is classed as physicochemical. Here is the method:
A stock solution of medium buffer containing 5 g/L of phenol was prepared, and 5 mL samples of the medium buffer were then contacted with 5 mL of solvent using the Mixxor™ contacting system. The contacted samples were then centrifuged, and the organic phase was aspirated and discarded. […] A red colour was developed in the samples, and the absorbance of the solution was measured relative to a blank using a Bausch and Lomb Spectronic 2000™ spectrophotometer. The partition coefficient for phenol in each organic-aqueous system was then be determined by mass balance. Any solvents that formed emulsions with the aqueous phase were eliminated from the solvent screening process, due to the difficulties associated with calculating partition coefficients for these systems.

The test system of series [3] is Pseudomonas putida ATCC 11172.
Protocol: (§3) Samples were taken from the organic and aqueous phases every twelve hours throughout the fermentations. Samples were centrifuged prior to analysis to separate the cell fraction, aqueous phase and organic layer. […] The organic samples were contacted with medium buffer using the Mixxor™ contacting system. The resulting mixture was then centrifuged, and the organic phase aspirated off. Phenol levels in the buffer were then determined as above, and the experimentally determined partition coefficient was used to calculate the concentration of phenol present in the organic phase. Cell density was assessed as described above. Consumption of base was also monitored.
Series [4] concerns Pseudomonas putida. Conditions: cited from earlier work.
Series [5] deals with Pseudomonas putida ATCC 11172. Here is the method: as §1
The fermentor was prepared as above, but with a second glass sparger added to improve aeration. A propeller was added to the stir shaft of the fermentation vessel, in an attempt to reduce foaming. The fermentation was allowed to progress normally, but when the phenol concentration in the organic phase reached 2 g/L, 250 ml of the organic phase was removed, and spiked with approximately 9 g of phenol. The organic sample was then returned to the reactor, bringing the overall concentration of phenol in the organic phase back to 20 g/L. This was done twice, at 72 hours and at 120 hours. Nutrient spikes (the standard carbon-free medium formulation dissolved in 50 mL of water, instead of 1 L) were also added at 96 hours and at 132 hours, to avoid nutrient depletion in the aqueous phase.
Samples were taken from the organic and aqueous phases every twelve hours throughout the fermentations. Samples were centrifuged prior to analysis to separate the cell fraction, aqueous phase and organic layer. Phenol concentrations in the aqueous phase were assayed using the 4-aminoantipyrine method as described above. The organic samples were contacted with medium buffer using the Mixxor™ contacting system. The resulting mixture was then centrifuged, and the organic phase aspirated off. Phenol levels in the buffer were then determined as above, and the experimentally determined partition coefficient was used to calculate the concentration of phenol present in the organic phase. Cell density was assessed as described above. Consumption of base was also monitored.
The source holds these as a separate data set.

The subject of series [6] is Pseudomonas putida ATCC 11172. This is another data set of the same source.
Protocol: To allow for complete biodegradation of the substrate, the carbon-free medium formulation was doubled in concentration, in order to provide adequate nutrients for the fermentation. The fermentor was initially aerated to 0.25 vvm and agitated at 200 rpm, but during the fermentation aeration was increased to 0.5 vvm, and agitation to 250 rpm, to increase the mass transfer of oxygen to the cells. A dissolved oxygen electrode was used to monitor the level of oxygen in the aqueous phase. The pH of the system was controlled at 6.8 using 1N KOH.
as §3
How the values of series [7] were obtained:
(§2) Fermentation was carried out in a 2 L New Brunswick Scientific BioFlo reactor modified for aeration with a fritted glass tube. The fermentor was operated at 30° C., agitated at 200 rpm and aerated at 0.25 vvm, based on the aqueous phase volume. The pH was controlled at 6.8 using 2N KOH. The fermentor was heat sterilized with 1 L of medium (containing no carbon source) already in place. The sterilized medium was then inoculated, and 500 mL of the organic solvent, loaded with 4 g of phenol, was added, as depicted in the schematic diagram shown in FIG. 1. A control fermentor was also prepared in the same manner, but with a cell free aqueous phase, to test for possible volatilization of phenol due to air stripping.
The pH was controlled at 6.8 using 2N KOH.

Series [8] has as its system Pseudomonas putida ATCC 11172. On the procedure: The microorganism used for these experiments was Pseudomonas putida available under ATCC accession number 11172. The organism was maintained in liquid and solid culture, transferred weekly. The maintenance medium formulation used was as previously described (Fujita et al.^11), with 5 g/L glucose and 100 mg/L phenol provided as carbon sources. Cultures were grown in 125 mL flasks containing 50 mL of medium in a shaker bath at 30° C. for 36 hours prior to inoculation of the fermentor. A total of 160 mL of inoculum from 4 flasks was concentrated by centrifugation, the supernatant decanted and the cell fraction resuspended in the remaining 40 mL of medium to prepare the final inoculum.
as §2
Cell density was estimated by measuring the optical density of samples taken from the aqueous phase at 650 nm. Phenol concentrations in the aqueous phase were estimated using the 4-aminoantipyrine method (Der Yang et al.^12) and a Bausch and Lomb Spectronic 2000 spectrophotometer. The samples were centrifuged prior to analysis in order to remove the cell fraction. The concentration of phenol in the organic phase was measured by contacting a sample taken from the organic phase with medium buffer using a Mixxora contacting system. The resulting mixture was centrifuged, the organic phase aspirated, and the buffer analyzed using the 4-aminoantipyrine method, as mentioned above. The amount of phenol present in the organic phase was then calculated by mass balance using an […] partition coefficient.
The source holds these as a separate data set.

Setting [9] is: 28 g fed batch, initial 10 g of phenol.

Read-outs that look alike come from different tables or passages of the source.

In the case of `CCCCCCCCCCO` [1-decanol], the “Consumed as Substrate” value in series [1] was “Yes”.
`CCCCCCCCCO` [1-nonanol]: the “Consumed as Substrate” value in series [1] is reported as “Yes”.
Turning to `CCCCCCCCCCCO` [1-undecanol], in series [1], the “Consumed as Substrate” value is reported as “Yes”. Besides, the “Partition Coefficient” value in series [2] amounted to 20.8.
Turning to `CCCCCCCCC(C)O` (centres unmarked) [2-decanol], in series [1], the “Consumed as Substrate” value is “No”. For the same molecule, the “Partition Coefficient” value in series [2] is listed as 22.6.
Regarding `CCCCCCCCC(C)=O` [2-decanone], the “Consumed as Substrate” value in series [1] is listed as “No”.
Regarding `CCCCCCCC(C)O` (centres unmarked) [2-nonanol], the “Consumed as Substrate” value in series [1] was “No”. The “Partition Coefficient” value in series [2] is 28.3.
With `CCCCCCCCCC(C)=O` [2-undecanone], in series [1], the “Consumed as Substrate” value is “No”.
In the case of `Oc1ccccc1` [phenol], the yield coefficient in series [3] (4 g phenol batch, cells in aqueous phase only) is on record as 0.20 g cells/g phenol; in series [4] (Hill et al., printed without unit in Example 1) it was 0.52+/-0.08; in series [5] (28 g fed batch system, cells in aqueous phase only), 0.12 g/g; in series [6] (10 g batch system, cells in aqueous phase only) it was 0.15 g/g; in series [8] (cells in aqueous phase only, 4 g phenol), “approximately 0.21 g cells produced/g phenol consumed”. The “initial concentration of phenol in the aqueous phase” value is 168 mg/L in series [3] (4 g phenol in organic phase); “approximately 420 mg/L” in series [6] (10 g phenol in organic phase); “approximately 168 mg/L” in series [8] (4 g phenol in 500 mL 2-undecanone, 1 L aqueous). Moreover, the initial lag phase is 12 h in series [3] (4 g phenol, batch) and 12 h in series [8] (4 g phenol, batch). Moreover, in series [4] (Hill et al., g cells/g phenol), the “typical yield coefficient on phenol” value was 0.52 ± 0.08 g/g. The “typical inhibitory value of phenol” value in series [4] (Kotturi et al.) is listed as 500 mg/L. The “volumetric phenol consumption rate” value in series [4] (highest literature value, batch system, Fujita et al.) is 37.5 mg/L-h; in series [6] (the batch system, based on aqueous phase volume), “approximately 135 mg/L-h”; in series [8] (based on aqueous phase volume, 4 g phenol, batch), “approximately 80 mg/L-h”. Also, in series [5] (setting [9]), the exponential growth phase worked out at 48 h. Also, the lag phase in series [5] (setting [9]) is 24 h; in series [6] (10 g phenol, batch), “about 24 hours”. Also, the “lag phase of cell growth for the spikes of phenol” value in series [5] (fed batch mode) is reported as “eliminates the lag phase”. The “time to degrade 28 g of phenol” value in series [5] (fed batch system) was “about 165 hours”. Moreover, the volumetric consumption rate in series [5] (fed batch system) stood at 175 mg/L-h. Also, in series [5] (fed batch, time from start of fermentation), the “time to consumption of the last 10 g of phenol to exhaustion” value is reported as “under 168 hours”. Further, the “loss of phenol to volatilization” value in series [7] (cell free fermentor, 48 hours, Example 1) is given as “no loss of phenol to volatilization”. In series [7] (control (cell-free) fermentor, Example 2), the “loss of phenol due to air stripping” value was “no phenol was lost due to air stripping”. In addition, the “time to consumption of phenol to exhaustion” value in series [8] (4 g phenol, 2-undecanone, batch) is recorded as “over 48 hours”.
